How the values were obtained:
[1] = target: Aβ40 (Homo sapiens, UniProt P05067); assay: Electrospray MS assay for binding to Aβ40; parameters: key: +++ = Strong (70 and higher % of free peptide); ++ = Moderate (50-70% of free peptide); + = Weak (25-50% of free peptide); 0 = None; details: 100 μM compound, 20 μM Aβ40, pH 7.4
Description: (§1) The ability of a therapeutic compound of the invention to inhibit an interaction between an amyloidogenic protein and a glycoprotein or proteoglycan constituent of a basement membrane can be assessed by an in vitro binding assay, such as that described in U.S. Pat. No. 5,164,295, the contents of which are hereby incorporated by reference. Alternatively, the ability of a compound to bind to an amyloidogenic protein or to inhibit the binding of a basement membrane constituent (e.g. HSPG) to an amyloidogenic protein (e.g. Aβ) can be measured using a mass spectrometry assay where soluble protein, e.g Aβ, IAPP, β2M is incubated with the compound. A compound which binds to, e.g Aβ, will induce a change in the mass spectrum of the protein. Exemplary protocols for a mass spectrometry assay employing Aβ and IAPP can be found in the Examples, the results of which are provided in Table 5. The protocol can readily be modified to adjust the sensitivity of the data, e.g., by adjusting the amount of protein and/or compound employed. Thus, e.g., binding might be detected for test compounds noted as not having detectable binding employing less sensitive test protocols.
The binding ability between the compounds synthesized in Example 4 and Aβ40 in an aqueous solution is tested. The binding ability is attributed semi-quantitatively from the intensities of peptide-compound complex peaks observed in the Electrospray Mass Spectrum.
In the MS assay for Aβ40, samples are prepared as aqueous solutions adding 20% ethanol if necessary to solubilize in water. The stock solution of the peptide contains 50 μm Aβ40. In a typical experiment, 100 μM of an exemplary compound as prepared in Example 4 and 20 μM of solubilized Aβ40 are used. The ratio of the compound: peptide is 5:1. The pH value of each sample is adjusted to 7.4 (±0.2) by addition of 0.1% aqueous sodium hydroxide. The solutions are then analyzed by electrospray ionization mass spectrometry using a Waters ZQ 4000 mass spectrometer. Samples are introduced by direct infusion at a flow-rate of 25 μL/min within 2 hr. after sample preparation. The source temperature is kept at 70° C. and the cone voltage is 20 V for all the analysis. Data are processed using Masslynx 3.5 software. Aβ 1-40 (M.W.=4329) alone at 20 μM is analyzed at pH 7.32 as a control. Sodium clusters, which are typical of this system at +3 and +4 at m/z […] regions, may be observed. The MS assay gives data on the ability of compounds to bind to soluble Aβ, whereas the ThT, EM and CD assays give data on inhibition of fibrillogenesis.
In Table 7, a blank box means that a value was not determined for that compound in that assay.

[2] = target: T1, L1 transport system (large neutral amino acid carrier, L1-system carrier) (Rattus norvegicus, UniProt Q63016); assay: Competitive binding assay to the brain L1 transport system (L-[U-14C]phenylalanine on rat primary cerebrovascular endothelial cells)
T1 construct: functionality of their endogenous transporters such as the L1-system carrier; endogenous in cells; host or cells: rat primary cerebrovascular (brain microcapillary) endothelial cells, RBEC
Summary of the method: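 Cells were primary cerebral microvascular endothelial cells from cortices of 24-day-old rats, isolated by collagenase/DNAse digestion, dextran separation and mesh filtration.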

[3] = tested on: HUVEC; assay: Cellular toxicity assay on HUVEC (WST-1 viability); format: cell-based, human; details: 24 hours, <75% considered toxic
Description: Compound samples in PBS (without Ca^+2, Mg^+2)-glucose 3 mM-HEPES 10 mM—DMSO 1%, as prepared in Example 1, were thawed and left for at least 30 minutes at 20-23° C. before preparation of the following sub-dilutions for the compound toxicity assay: • 100 μL of stock compound solution were added to 900 μL PBSD-1 [diluted 1:10 for a final 1:10 dilution] • 100 μL (1/10 dilution above) were added to 900 μL PBSD-1 [diluted 1:10 for a final 1:100 dilution] Culture of HUVEC
Endothelial cells from human umbilical cord (HUV-EC-C or HUVEC) were purchased form American Type Culture Collection (ATCC, CRL-1730) and cultured according to the manufacturer's protocol. A 1-mL frozen aliquot of sub-cultured cells was thawed in a 37° C. water bath and centrifuged following addition of 5 mL of medium. After re-suspension in 5 mL medium, cells were seeded in a TC80 cm^2 flask pre-coated with 0.1% gelatin. Culture medium was replaced every 3-4 days and cells monitored until confluency was reached.
A sterile stock solution of 0.5 mM of camptothecin (Sigma) was prepared by dissolving a weighed amount of 0.0085 g in 50 mL of double distilled water at 37° C. in a water bath. The solution was vortexed, then filtered through a 0.22-μm filter unit and kept at 4° C. for the duration of the toxicity assays.
From the stock solution, concentrations of 60, 75, 80, 100, 150, 200 and 250 nM of camptothecin were prepared in culture diluent containing 1% DMSO.
HUVEC were cultured for 4 days in gelatin-coated 96-well plates, following seeding with 40 μL/well of a cellular suspension of 1×10^5 cells/mL. Culture media was replaced every 3-4 days of culture until confluency was reached.
On the day of the toxicity assay, the conditioned culture media was removed from the wells and 90 μL of culture medium containing 1% DMSO was distributed in the plate. A volume of 10 μL of the stock solution, 1:10 and 1:100 dilutions of the compounds in PBS-glucose-HEPES-DMSO 1% were added to the appropriate wells (100-μL total volume/well). A volume of 100 μL of camptothecin dilutions and culture medium containing 1% DMSO was also distributed into the plate. Cells were incubated at 37° C. of 24 hours and then 10 μL of the tetrazolium salt WST-1 solution were added to cells and incubated for an extra 90 minutes at 37° C. The absorbance that was associated to the cellular viability was measured at 450nm on the SpectraFluor Tecan reader, and the raw data processed.
The intrinsic cellular toxicity of the compounds was determined for each concentration of every compound on HUVEC. The viability percentage was assessed (OD sample/OD control) ×100% and any value <75% viability was considered toxic. The following table, Table 5, lists the few compounds that presented at least one toxic concentration.

[4] = target: T2, IAPP (Homo sapiens, UniProt P10997); assay: Electrospray MS assay for binding to IAPP; parameters: key to MS Results (IAPP binding), Water: 0 = None; details: 100 μM compound, 20 μM IAPP; for MS Results (IAPP binding), 20% Ethanol: pH 7.4, 20% ethanol in water; for MS Results (IAPP binding), Water: pH 7.4, aqueous solution
T2 construct: which is a 37 amino acid peptide, derived from a larger precursor peptide, called pro-IAPP
T2 sequence (P10997 34-70 limits assumed): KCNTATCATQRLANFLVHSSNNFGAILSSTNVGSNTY
Description: as §1
The binding ability between the compounds synthesized in Example 4 and IAPP in an aqueous solution is tested. The binding ability is attributed semi-quantitatively from the intensities of peptide-compound complex peaks observed in the Electrospray Mass Spectrum.
In the MS assay for IAPP, samples are prepared as both aqueous solutions and as 20% ethanol in water solutions, including 100 μM of an exemplary compound as prepared in. Example 4 and 20 μM of solubilized IAPP. The stock solution contains 30 μM IAPP and the initial pH is 3.8. Generally, IAPP precipitates out of solution at concentrations higher than 50 μM and pH higher than ˜6 as soon as a test compound is mixed with the peptide. The pH value of each sample, therefore, is adjusted to 7.4 ([…]) by addition of 0.1% aqueous sodium hydroxide. The solutions aer then analyzed by electrospray ionization mass spectrometry using a Waters ZQ 4000 mass spectrometer. Samples are introduced by direct infusion at a flow-rate of 25 μL/min within 2 hr. after sample preparation. The source temperature is kept at 70° C. and the cone voltage is 20 V for all the analysis. Data are processed using Masslynx 3.5 software. IAPP (MW 3903.4) alone at 20 μM is analyzed at pH 7.32 as a control. Sodium clusters, which are typical of this system at +3 and +4 at m/z 1301.9 and 976.7 regions, may be observed. In Table 8, a blank box means that a value was not determined for that compound in that assay.

T1 sequence (Q63016 whole entry): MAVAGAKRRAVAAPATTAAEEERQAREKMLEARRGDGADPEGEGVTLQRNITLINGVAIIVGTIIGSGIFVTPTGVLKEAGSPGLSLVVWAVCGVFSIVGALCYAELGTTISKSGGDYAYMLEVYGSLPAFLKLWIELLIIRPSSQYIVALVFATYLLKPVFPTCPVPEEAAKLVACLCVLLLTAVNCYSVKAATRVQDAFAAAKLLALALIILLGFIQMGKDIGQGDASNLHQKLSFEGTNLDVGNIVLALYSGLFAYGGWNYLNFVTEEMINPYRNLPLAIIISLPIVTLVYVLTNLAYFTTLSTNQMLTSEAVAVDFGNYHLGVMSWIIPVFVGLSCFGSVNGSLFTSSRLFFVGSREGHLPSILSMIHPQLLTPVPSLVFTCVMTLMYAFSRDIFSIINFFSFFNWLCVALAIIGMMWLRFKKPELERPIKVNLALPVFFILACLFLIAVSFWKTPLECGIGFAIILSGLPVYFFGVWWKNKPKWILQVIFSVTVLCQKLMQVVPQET
T1 sequence (Q794F9 whole entry partner): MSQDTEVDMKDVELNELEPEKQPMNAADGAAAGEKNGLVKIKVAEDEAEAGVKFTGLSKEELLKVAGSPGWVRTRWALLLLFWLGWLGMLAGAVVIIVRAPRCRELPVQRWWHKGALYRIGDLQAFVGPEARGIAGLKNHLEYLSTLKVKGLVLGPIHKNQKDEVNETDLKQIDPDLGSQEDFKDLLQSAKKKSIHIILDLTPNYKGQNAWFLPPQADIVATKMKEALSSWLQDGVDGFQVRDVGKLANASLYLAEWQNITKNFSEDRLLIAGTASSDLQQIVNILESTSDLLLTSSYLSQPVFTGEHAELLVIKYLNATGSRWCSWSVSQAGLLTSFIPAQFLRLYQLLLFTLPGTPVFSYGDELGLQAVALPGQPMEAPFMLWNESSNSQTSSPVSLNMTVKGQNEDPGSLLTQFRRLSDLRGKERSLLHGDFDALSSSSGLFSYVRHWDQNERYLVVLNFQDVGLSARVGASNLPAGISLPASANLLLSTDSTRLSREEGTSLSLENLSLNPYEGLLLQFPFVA
Aβ40, sequence (P05067 672-711 limits assumed): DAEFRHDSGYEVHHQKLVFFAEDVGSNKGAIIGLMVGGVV

`N[C@@H](Cc1cccc(C[S+]([O-])c2nnnn2-c2ccccc2)c1)C(=O)O` (stereo partly shown) [drawing 496] was tested, and the “MS Results (Aβ 1-40 binding)” value [1] was “+ (+ = Weak (25-50% of free peptide))”.

For `N[C@@H](Cc1cccc(CSc2nnc(-c3ccccc3)[nH]2)c1)C(=O)O` [drawing 490], the “MS Results (Aβ 1-40 binding)” value [1] was “+ (+ = Weak (25-50% of free peptide))”.

For `COc1ccc(-n2nnnc2SCc2cccc(C[C@H](N)C(=O)O)c2)cc1` [drawing 487], the “MS Results (Aβ 1-40 binding)” value [1] was “+ (+ = Weak (25-50% of free peptide))”.

For `N[C@@H](Cc1cccc(CS(=O)(=O)c2ncc[nH]2)c1)C(=O)O` [drawing 505], the “MS Results (Aβ 1-40 binding)” value [1] was “+ (+ = Weak (25-50% of free peptide))”.

With `N[C@@H](Cc1cccc(C[S+]([O-])c2nnc(-c3ccccc3)[nH]2)c1)C(=O)O` (stereo partly shown) [drawing 504] the “MS Results (Aβ 1-40 binding)” value [1] was 0.

In the case of `O=C(NC(Cc1cccc(CSc2nnc[nH]2)n1)C(=O)O)NC(c1ccccc1)c1ccccc1` (stereo not shown) [Compound 37], the “Comparison with the Binding of Phenylalanine” value (shortened to “Comparison with the Binding”) ([2]; 10^−4 M) was 2 (10 < X < 20 Rank 2), the “Comparison with the Binding” value ([2]; 10^−5 M) was 3 (X > 20 Rank 3) and the “Comparison with the Binding” value ([2]; 10^−6 M) was 2 (10 < X < 20 Rank 2). The “Viability (%)” value ([3]; 10^−4 M) was 94%, the “Viability (%)” value ([3]; 10^−5 M) was 50% and the “Viability (%)” value ([3]; 10^−6 M) was 87%.

With `O=C(NC(Cc1cccc(CSc2ncnc3[nH]ncc23)n1)C(=O)O)NC(c1ccccc1)c1ccccc1` (stereo not shown) [Compound 65] the “Viability (%)” value ([3]; 10^−4 M) was 107%, the “Viability (%)” value ([3]; 10^−5 M) was 68% and the “Viability (%)” value ([3]; 10^−6 M) was 109%.

With `N[C@@H](Cc1cccc(CSc2nc3ccccc3[nH]2)n1)C(=O)O` [drawing 491] the “MS Results (Aβ 1-40 binding)” value [1] was “+ (+ = Weak (25-50% of free peptide))”.

In the case of `O=C(O)C(Cc1cccc(CSc2nnc[nH]2)n1)NS(=O)(=O)c1ccc(F)cc1` (stereo not shown) [Compound 66], the “Comparison with the Binding” value ([2]; 10^−4 M) was 2 (10 < X < 20 Rank 2), the “Comparison with the Binding” value ([2]; 10^−5 M) was 3 (X > 20 Rank 3) and the “Comparison with the Binding” value ([2]; 10^−6 M) was 0 (X < 0 Rank 0). For the same compound, the “Viability (%)” value ([3]; 10^−4 M) was 117%, the “Viability (%)” value ([3]; 10^−5 M) was 114% and the “Viability (%)” value ([3]; 10^−6 M) was 67%.

`N[C@@H](Cc1cccc(CS(=O)(=O)c2nc3ccccc3[nH]2)n1)C(=O)O` [drawing 493] was tested, and the “MS Results (Aβ 1-40 binding)” value [1] was “+ (+ = Weak (25-50% of free peptide))”.

With `N[C@@H](Cc1cccc(CS(=O)(=O)c2nc3ccccc3[nH]2)c1)C(=O)O` [drawing 499] the “MS Results (Aβ 1-40 binding)” value [1] was “++ (++ = Moderate (50-70% of free peptide))”.

`COc1ccc(-n2nnnc2[S+]([O-])Cc2cccc(C[C@H](N)C(=O)O)c2)cc1` (stereo partly shown) [drawing 494] was tested, and the “MS Results (Aβ 1-40 binding)” value [1] was 0.

`N[C@@H](Cc1cccc(CSc2nnc(-c3ccncc3)o2)c1)C(=O)O` [drawing 502] was tested, and the “MS Results (Aβ 1-40 binding)” value [1] was “+ (+ = Weak (25-50% of free peptide))”.

With `N[C@@H](Cc1cccc(CSc2nnnn2-c2ccccc2)c1)C(=O)O` [drawing 488] the “MS Results (Aβ 1-40 binding)” value [1] was “+ (+ = Weak (25-50% of free peptide))”.

`N[C@@H](Cc1cccc(CSc2nccc(O)n2)c1)C(=O)O` [drawing 495] was tested, and the “MS Results (Aβ 1-40 binding)” value [1] was 0.

For `N[C@@H](Cc1cccc(CSc2nnnn2-c2ccc(O)cc2)c1)C(=O)O` [drawing 501], the “MS Results (Aβ 1-40 binding)” value [1] was “+ (+ = Weak (25-50% of free peptide))”.

With `N[C@@H](Cc1cccc(C[S+]([O-])c2nnnn2-c2ccccc2)n1)C(=O)O` (stereo partly shown) [drawing 500] the “MS Results (Aβ 1-40 binding)” value [1] was 0.

With `N[C@@H](Cc1cccc(CSc2ncnc3[nH]ncc23)n1)C(=O)O` [drawing 492] the “MS Results (Aβ 1-40 binding)” value [1] was “+ (+ = Weak (25-50% of free peptide))”.

`CN(C)CCn1nnnc1SCc1cccc(C[C@H](N)C(=O)O)c1` [drawing 525] was tested, and the “MS Results (IAPP binding), 20% Ethanol” value [4] was “+ (+ = Weak (15-30% of free peptide))” and the “MS Results (IAPP binding), Water” value [4] was “+ (+ = Weak (15-30% of free peptide))”.

In the case of `N[C@@H](Cc1cccc(CSc2nccc(C(F)(F)F)n2)n1)C(=O)O` [drawing 497], the “MS Results (Aβ 1-40 binding)” value [1] was “Compound insoluble”.

For `N[C@@H](Cc1cccc(CSc2nnc(-c3ccncc3)[nH]2)c1)C(=O)O` [drawing 528], the “MS Results (IAPP binding), Water” value [4] was “+ (+ = Weak (15-30% of free peptide))”.

For `N[C@@H](Cc1cccc(CSc2nnc(-c3ccccc3)[nH]2)c1)C(=O)O` [drawing 511], the “MS Results (IAPP binding), Water” value [4] was “+ (+ = Weak (15-30% of free peptide))”.

`N[C@@H](Cc1cccc(CSc2nc3ccc(Cl)cc3s2)n1)C(=O)O` [drawing 498] was tested, and the “MS Results (Aβ 1-40 binding)” value [1] was “Compound Insoluble”.

For `COc1ccc(-n2nnnc2[S+]([O-])Cc2cccc(C[C@H](N)C(=O)O)c2)cc1` (stereo partly shown) [drawing 503], the “MS Results (Aβ 1-40 binding)” value [1] was “+ (+ = Weak (25-50% of free peptide))”.

For `N[C@@H](Cc1cccc(CSc2nc3ccccc3[nH]2)c1)C(=O)O` [drawing 489], the “MS Results (Aβ 1-40 binding)” value [1] was “+ (+ = Weak (25-50% of free peptide))”.

`N[C@@H](Cc1cccc(C[S+]([O-])c2nnnn2-c2ccccc2)n1)C(=O)O` (stereo partly shown) [drawing 522] was tested, and the “MS Results (IAPP binding), 20% Ethanol” value [4] was “++ (++ = Moderate (30-50% of free peptide))” and the “MS Results (IAPP binding), Water” value [4] was 0.
